Measurements taken from EP3822285A1, “VARIANT NISIN PEPTIDES” (University College Cork-National University of Ireland, Cork, priority 2019, dated 2021).
≈ marks a conversion by molar mass, not a printed value. Marks after values point to notes of the source that are not given here.

What was measured:
Format in all cases: cell-based
T. brockianus = experiment: Minimum inhibitory concentration assay (Thermus); conditions: pure peptide, mean of triplicate assays
Method: (§1) Minimum inhibitory concentration (MIC) determinations for gram negative Thermus strains were carried out in triplicate in round bottom microtitre plates (Corning). 96 well microtitre plates were pre-treated with bovine serum albumin (BSA) prior to addition of the peptides. Briefly, to each well of the microtire plates 200 µl of d.H2O (filtered with 0.2 µm filter) containing 1% (w/w) BSA was added and incubated at 37°C for 30 mins. The wells were washed with 200 µl of IX phosphate buffered saline (PBS) for 2 times after removing 1% BSA d.H2O. 100 µl of growth media, i.e., Castenholz, was added to each well. […] Target strains were grown overnight as per conditions mention above, 0.5 ml of overnight was subcultured in to 10 mls of fresh Castenholz medium and allowed to grow to an OD600 of ∼0.5. 20µl of this subculture was added to 980µl of media, 150µl of this dilution added to 14.85 ml of growth media. 100µl of this dilution added to each well resulting in a final inoculum of ∼10^5 cfu/ml in 200µl. The plates were incubated at 55° C for 3 days and the MIC was determined as the lowest concentration at which no growth was visible.
(§2) The bioactivity of cell-free supernatant can be influenced by altered diffusion rates, solubility, production or specific activity. To determine to what extent, if any, the bioactivity noted above is due to increased specific activity, nisin A (control) and the derivatives were purified and their molecular weights confirmed by MALDI TOF mass spectrometry (Table: 6) (Figure: 4). These peptides were used to perform minimum inhibitory concentration assays against six Thermus strains, i.e., T. thermophilus HB27, T. scotoductus SE-1, T. rehai, T. oshimai, T. aquaticus and T. brockianus.

T. rehai = experiment: Minimum inhibitory concentration assay (Thermus); conditions: pure peptide, mean of triplicate assays
Method: as §1, §2

T. scotoductus SE-1 = experiment: Minimum inhibitory concentration assay (Thermus); conditions: pure peptide, mean of triplicate assays
Method: as §1, §2

T. oshimai = experiment: Minimum inhibitory concentration assay (Thermus); conditions: pure peptide, mean of triplicate assays
Method: as §1, §2

T. aquaticus = experiment: Minimum inhibitory concentration assay (Thermus); conditions: for MIC: pure peptide, mean of triplicate assays
Method: as §1, §2

T. thermophilus HB27 = experiment: Minimum inhibitory concentration assay (Thermus); conditions: pure peptide, mean of triplicate assays
Method: as §1, §2

[1] = test system: Thermus thermophilus HB27; experiment: Agar diffusion assay with cell free supernatant of producing strains; conditions: zone diameter relative to Nisin A wild type (100)
Method: (§3) Agar diffusion assays were carried out in triplicate using nisin producing and indicator (T. thermophilus HB27 and T. scotoductus Se-1) strains. Both the producer and indicator strains were cultured as per conditions described above. One ml of overnight culture of indicators were added to 50ml of molten Castenholz agar, briefly swirled and poured. Wells were made using sterile glass pipette. To generate cell free supernatant from nisin producing strains, 10 mls of overnight cultures of the strains were centrifuged at 950g for 20 mins. The cell free supernatant was transferred to a sterile tube. 50 µl of cell free supernatant was added to wells described above. Plates were incubated at 55°C for 3 days and the zone of clearance measured.
(§4) The cell free supernatant of nisin A and nisin variant producing L. lactis was used to determine the bioactivity of these lantibiotics against T. thermophilus HB27 and T. scotoductus SE-1 using agar diffusion assays, with the zone of clearance representing the bioactivity of the producing strain (i.e., representing a combination of the amount of the peptide produced and the specific activity of that peptide). […] Among the variants tested were those with altered N-terminal domains. The N-terminal domain of nisin is important for binding with the pyrophosphate moiety of lipid II to mediate pore formation in the cell membrane. Lysine (K) at position 12, which serves as a small flexible region between ring B and C, and is one of among the 5 positively charged residues (K12, K22, K34, H27, […]) of nisin A that contributes to its cationic nature and its attraction to the cell envelope.

Thermus scotoductus SE-1 = experiment: as above; conditions: zone diameter relative to Nisin A wild type (100)
Method: as §3, §4

C=C(NC(=O)[C@@H](NC(=O)[C@H](Cc1c[nH]cn1)NC(=O)[C@@H](NC(=O)[C@H](CO)NC(=O)[C@@H]1CS[C@@H](C)[C@H]2NC(=O)[C@H](C)NC(=O)[C@H](NC(=O)[C@H](CCC(N)=O)NC(=O)[C@H](C)NC(=O)[C@@H]3CCCN3C(=O)[C@@H]3CS[C@@H](C)[C@@H](NC(=O)[C@H](CCCCN)NC(=O)[C@@H]4CS[C@@H](C)[C@@H](NC(=O)[C@@H]5CSC[C@@H](NC(=O)/C(=C/C)NC(=O)[C@@H](N)[C@@H](C)CC)C(=O)N[C@@H]([C@@H](C)CC)C(=O)NC(=C)C(=O)N[C@@H](CC(C)C)C(=O)N5)C(=O)N5CCC[C@H]5C(=O)NCC(=O)N4)C(=O)NCC(=O)N[C@@H](C)C(=O)N[C@@H](CC(C)C)C(=O)N[C@@H](CCSC)C(=O)NCC(=O)N3)[C@H](C)SC[C@H](NC2=O)C(=O)N[C@@H](Cc2c[nH]cn2)C(=O)N1)[C@@H](C)CC)C(C)C)C(=O)N[C@@H](CCCCN)C(=O)O [PAQ]
MIC (T. brockianus): 0.0312 µM (≈ 0.102 µg/mL) | MIC (T. rehai): 0.0156 µM (≈ 0.0511 µg/mL) | MIC (T. scotoductus SE-1): 0.0625 µM (≈ 0.205 µg/mL) | MIC (T. oshimai): 0.0039 µM (≈ 0.0128 µg/mL) | MIC (T. aquaticus): 0.0156 µM (≈ 0.0511 µg/mL) | MIC (T. thermophilus HB27): 0.0078 µM (≈ 0.0256 µg/mL) | % difference [1]: 138* (0.02) %

C=C(NC(=O)[C@@H](NC(=O)[C@H](Cc1c[nH]cn1)NC(=O)[C@@H](NC(=O)[C@H](CO)NC(=O)[C@@H]1CS[C@@H](C)[C@H]2NC(=O)[C@H](C)NC(=O)[C@H](NC(=O)[C@H](CCCCN)NC(=O)[C@H](CCSC)NC(=O)[C@H](CO)NC(=O)[C@@H]3CS[C@@H](C)[C@@H](NC(=O)[C@H](CCCCN)NC(=O)[C@@H]4CS[C@@H](C)[C@@H](NC(=O)[C@@H]5CSC[C@@H](NC(=O)/C(=C/C)NC(=O)[C@@H](N)[C@@H](C)CC)C(=O)N[C@@H]([C@@H](C)CC)C(=O)NC(=C)C(=O)N[C@@H](CC(C)C)C(=O)N5)C(=O)N5CCC[C@H]5C(=O)NCC(=O)N4)C(=O)NCC(=O)N[C@@H](C)C(=O)N[C@@H](CC(C)C)C(=O)N[C@@H](CCSC)C(=O)NCC(=O)N3)[C@H](C)SC[C@H](NC2=O)C(=O)N[C@@H](Cc2c[nH]cn2)C(=O)N1)[C@@H](C)CC)C(C)C)C(=O)N[C@@H](CCCCN)C(=O)O [N20S]
MIC (T. brockianus): 0.0156 µM (≈ 0.0519 µg/mL) | MIC (T. rehai): 0.00195 µM (≈ 0.00649 µg/mL) | MIC (T. scotoductus SE-1): 0.3125 µM (≈ 1.04 µg/mL) | MIC (T. oshimai): 0.000975 µM (≈ 0.00324 µg/mL) | MIC (T. aquaticus): 0.0078 µM (≈ 0.026 µg/mL) | MIC (T. thermophilus HB27): 0.0039 µM (≈ 0.013 µg/mL) | % difference [1]: 119% | % of wild type (Thermus scotoductus SE-1): 112%

C=C(NC(=O)[C@@H](NC(=O)[C@H](Cc1c[nH]cn1)NC(=O)[C@@H](NC(=O)[C@H](CO)NC(=O)[C@@H]1CS[C@@H](C)[C@H]2NC(=O)[C@H](C)NC(=O)[C@H](NC(=O)[C@H](CCCCN)NC(=O)[C@H](CCSC)NC(=O)[C@H](CC(N)=O)NC(=O)[C@@H]3CS[C@@H](C)[C@@H](NC(=O)[C@H](CC(C)C)NC(=O)[C@@H]4CS[C@@H](C)[C@@H](NC(=O)[C@@H]5CSC[C@@H](NC(=O)/C(=C/C)NC(=O)[C@@H](N)[C@@H](C)CC)C(=O)N[C@@H]([C@@H](C)CC)C(=O)NC(=C)C(=O)N[C@@H](CC(C)C)C(=O)N5)C(=O)N5CCC[C@H]5C(=O)NCC(=O)N4)C(=O)NCC(=O)N[C@@H](C)C(=O)N[C@@H](CC(C)C)C(=O)N[C@@H](CCSC)C(=O)NCC(=O)N3)[C@H](C)SC[C@H](NC2=O)C(=O)N[C@@H](Cc2c[nH]cn2)C(=O)N1)[C@@H](C)CC)C(C)C)C(=O)N[C@@H](CCCCN)C(=O)O [K12L]
MIC (T. brockianus): 0.0312 µM (≈ 0.104 µg/mL) | MIC (T. rehai): 0.0078 µM (≈ 0.026 µg/mL) | MIC (T. scotoductus SE-1): 0.0625 µM (≈ 0.209 µg/mL) | MIC (T. oshimai): 0.0078 µM (≈ 0.026 µg/mL) | fold better activity than nisin A (T. aquaticus): 2 fold | MIC (T. aquaticus): 0.0078 µM (≈ 0.026 µg/mL) | MIC (T. thermophilus HB27): 0.0156 µM (≈ 0.0521 µg/mL) | % difference [1]: 120%

C=C(NC(=O)[C@@H](NC(=O)[C@H](Cc1c[nH]cn1)NC(=O)[C@@H](NC(=O)[C@H](CO)NC(=O)[C@@H]1CS[C@@H](C)[C@H]2NC(=O)[C@H](C)NC(=O)[C@H](NC(=O)[C@H](C)NC(=O)CNC(=O)[C@@H]3CCCN3C(=O)[C@@H]3CS[C@@H](C)[C@@H](NC(=O)[C@H](CCCCN)NC(=O)[C@@H]4CS[C@@H](C)[C@@H](NC(=O)[C@@H]5CSC[C@@H](NC(=O)/C(=C/C)NC(=O)[C@@H](N)[C@@H](C)CC)C(=O)N[C@@H]([C@@H](C)CC)C(=O)NC(=C)C(=O)N[C@@H](CC(C)C)C(=O)N5)C(=O)N5CCC[C@H]5C(=O)NCC(=O)N4)C(=O)NCC(=O)N[C@@H](C)C(=O)N[C@@H](CC(C)C)C(=O)N[C@@H](CCSC)C(=O)NCC(=O)N3)[C@H](C)SC[C@H](NC2=O)C(=O)N[C@@H](Cc2c[nH]cn2)C(=O)N1)[C@@H](C)CC)C(C)C)C(=O)N[C@@H](CCCCN)C(=O)O [PGA]
MIC (T. brockianus): 0.0625 µM (≈ 0.2 µg/mL) | MIC (T. rehai): 0.0156 µM (≈ 0.05 µg/mL) | MIC (T. scotoductus SE-1): 0.125 µM (≈ 0.401 µg/mL) | MIC (T. oshimai): 0.0078 µM (≈ 0.025 µg/mL) | MIC (T. aquaticus): 0.0312 µM (≈ 0.1 µg/mL) | MIC (T. thermophilus HB27): 0.0156 µM (≈ 0.05 µg/mL) | % difference [1]: 113%

C=C(NC(=O)[C@@H](NC(=O)[C@H](Cc1c[nH]cn1)NC(=O)[C@@H](NC(=O)[C@H](CO)NC(=O)[C@@H]1CS[C@@H](C)[C@H]2NC(=O)[C@H](C)NC(=O)[C@H](NC(=O)[C@H](CCCCN)NC(=O)[C@H](C)NC(=O)[C@H](C)NC(=O)[C@@H]3CS[C@@H](C)[C@@H](NC(=O)[C@H](CCCCN)NC(=O)[C@@H]4CS[C@@H](C)[C@@H](NC(=O)[C@@H]5CSC[C@@H](NC(=O)/C(=C/C)NC(=O)[C@@H](N)[C@@H](C)CC)C(=O)N[C@@H]([C@@H](C)CC)C(=O)NC(=C)C(=O)N[C@@H](CC(C)C)C(=O)N5)C(=O)N5CCC[C@H]5C(=O)NCC(=O)N4)C(=O)NCC(=O)N[C@@H](C)C(=O)N[C@@H](CC(C)C)C(=O)N[C@@H](CCSC)C(=O)NCC(=O)N3)[C@H](C)SC[C@H](NC2=O)C(=O)N[C@@H](Cc2c[nH]cn2)C(=O)N1)[C@@H](C)CC)C(C)C)C(=O)N[C@@H](CCCCN)C(=O)O [AAK]
MIC (T. brockianus): 0.0156 µM (≈ 0.0507 µg/mL) | MIC (T. rehai): 0.0156 µM (≈ 0.0507 µg/mL) | MIC (T. scotoductus SE-1): 0.0625 µM (≈ 0.203 µg/mL) | MIC (T. oshimai): 0.0156 µM (≈ 0.0507 µg/mL) | MIC (T. aquaticus): 0.0625 µM (≈ 0.203 µg/mL) | MIC (T. thermophilus HB27): 0.0312 µM (≈ 0.101 µg/mL) | % of wild type (Thermus scotoductus SE-1): 132* (0.004) %

C=C(NC(=O)[C@@H](NC(=O)[C@H](Cc1c[nH]cn1)NC(=O)[C@@H](NC(=O)[C@H](CO)NC(=O)[C@@H]1CS[C@@H](C)[C@H]2NC(=O)[C@H](C)NC(=O)[C@H](NC(=O)[C@H](CCCCN)NC(=O)[C@H](C)NC(=O)[C@H](CC(N)=O)NC(=O)[C@@H]3CS[C@@H](C)[C@@H](NC(=O)[C@H](CCCCN)NC(=O)[C@@H]4CS[C@@H](C)[C@@H](NC(=O)[C@@H]5CSC[C@@H](NC(=O)/C(=C/C)NC(=O)[C@@H](N)[C@@H](C)CC)C(=O)N[C@@H]([C@@H](C)CC)C(=O)NC(=C)C(=O)N[C@@H](CC(C)C)C(=O)N5)C(=O)N5CCC[C@H]5C(=O)NCC(=O)N4)C(=O)NCC(=O)N[C@@H](C)C(=O)N[C@@H](CC(C)C)C(=O)N[C@@H](CCSC)C(=O)NCC(=O)N3)[C@H](C)SC[C@H](NC2=O)C(=O)N[C@@H](Cc2c[nH]cn2)C(=O)N1)[C@@H](C)CC)C(C)C)C(=O)N[C@@H](CCCCN)C(=O)O [M21A]
MIC (T. brockianus): 0.0625 µM (≈ 0.206 µg/mL) | MIC (T. rehai): 0.0312 µM (≈ 0.103 µg/mL) | MIC (T. scotoductus SE-1): 0.0312 µM (≈ 0.103 µg/mL) | MIC (T. oshimai): 0.0078 µM (≈ 0.0257 µg/mL) | MIC (T. aquaticus): 0.0078 µM (≈ 0.0257 µg/mL) | MIC (T. thermophilus HB27): 0.0312 µM (≈ 0.103 µg/mL) | % difference [1]: 158* (0.001) %
